{
  "source": "patent US20170027973A1",
  "about": "“MODULARION OF INVARIANT NATURAL KILLER T CELLS IN THE TREATMENT OF SEPSIS” (LONDON HEALTH SCIENCES CENTRE RESEARCH INC., priority 2014, published 2017)",
  "key": {"[1]": {"test_system": "B6 mice with intra-abdominal sepsis (IAS)", "assay": "Murine intra-abdominal sepsis (IAS) model: survival and murine sepsis score (MSS)", "type": "in vivo, mouse", "conditions": "septic B6 mice; for median survival: 4 μg i.p. single dose, vehicle 24 hours; for murine sepsis score (MSS) after 24 h: compared to vehicle treatment", "protocol": "Stool from the cecum of euthanized naïve B6 mice was expressed through an enterotomy, homogenized, and suspended in 0.9% normal saline (NS) to produce a fecal slurry at a final concentration of 90 mg/mL, for use in experiments on the same day. Mice were injected intraperitoneally with 500 μL fecal slurry or 0.9% normal saline (sham group). The mice were monitored and scored by two independent investigators—one of whom was blinded to the treatment—every 2-3 hours for the first 12 hours, and then every 1-2 hours thereafter. A murine sepsis score (MSS) was assigned to each mouse based on activity, eye movement, response to exogenous stimuli, breathing rate and pattern, and degree of piloerection (Shrum et al. BMC Research Notes 2014, 7:233). The MSS is a reliable and robust scoring system that has excellent inter-rater reliability (intra-class coefficient=0.96), high internal consistency (Cronbach α=0.92), and correlates with levels of certain pro-inflammatory cytokines such as IFN-γ and IL-1β during the experimental timeline (Shrum et al. BMC Research Notes 2014, 7:233). Mice were euthanized at 24 hours, or earlier if they were deemed to be in significant distress based on our scoring model. Euthanasia was carried out as described above. At the time of sacrifice, intra-cardiac blood was drawn into 1.5 mL micro-centrifuge tubes (BD Biosciences) and centrifuged for serum at 1000×g for 30 minutes at 4° C.\n(§1) Lyophilized OCH was generously provided by the National Institutes of Health (NIH) Tetramer Core Facility (Emory University, Atlanta, Ga.). Each vial containing 0.2 mg of OCH was solubilized in a vehicle solution containing 1 mL of sterile distilled water, 0.5% Tween 20, 56 mg of sucrose and 7.5 mg of histidine, and stored as aliquots at 4° C. until use. KRN7000 (α-GalCer, C26:0/C18:0) was purchased from Funakoshi Co. Ltd. (Tokyo, Japan), solubilized at 1 mg/ml in dimethylsulphoxide (DMSO), and stored as aliquots at −20° C. until use (29); the control vehicle was 2% DMSO in phosphate-buffered saline (PBS). C20:2 was synthesized and used as previously published (30, 31). For in vivo experiments, mice were injected intraperitoneally (i.p.) with a single dose of glycolipid (4 μg/dose) (30) within twenty minutes after induction of IAS."}, "serum IL-4 and IFN-γ": {"test_system": "serum IL-4 and IFN-γ", "assay": "Serum IL-4 and IFN-γ by ELISA after i.p. glycolipid injection into naïve B6 mice", "type": "in vivo, mouse", "protocol": "FIG. 10: Effect of glycolipid agonists on cytokine expression in naïve B6 mice, and on iNKT cells in septic B6 mice. (a) Naïve B6 mice were injected i.p. with 4 μg OCH or KRN7000 or C20:2, and bled at 2, 12, and 24 hours post-injection. Serum samples were assayed for IL-4 and IFN-γ by enzyme-linked immunosorbent assay (ELISA). […] Vehicle-treated mice had cytokine levels below limits of detection. (b) B6 mice were given an intraperitoneal injection of fecal slurry (500 μL of a 90 mg/mL solution) to induce IAS and concomitantly treated with 4 μg of vehicle, OCH, or KRN7000. After 24 hours, mice were sacrificed, and cell suspensions from the liver and spleen were stained for the flow cytometric detection of CD1d tetramer+ TCRβ+iNKT cells.\nas §1\nCytokine concentrations were determined by commercially available specific ELISA assays for IL-4 and IFN-γ (Ready-Set-Go kits, eBioscience). ODs were measured on a Benchmark Microplate Reader (Bio-Rad) at a wavelength of 450 nm for both cytokines."}, "[2]": {"test_system": "surface TCR of iNKT cells", "conditions": "after 24 hours; cited from earlier work"}, "[3]": {"test_system": "splenic T, B, NK cells and macrophages", "assay": "Annexin V / 7-AAD flow cytometry of apoptotic splenic cell populations in septic B6 mice", "type": "in vivo, mouse", "conditions": "for NK cell apoptosis / frequency of apoptotic macrophages: spleen; for frequency of apoptotic macrophages: compared to vehicle-treated mice", "from_the_text": "FIG. 7: Analysis of apoptotic cell populations in the spleens of septic B6 mice. Splenocytes from sham and septic B6 mice treated with OCH, KRN7000, or vehicle were stained for T, B, and Natural Killer (NK) cells, and macrophages, and further stained for Annexin V (a marker for early apoptosis) and 7-AAD viability dye. Early and late apoptotic cells (Annexin V+7AAD- and Annexin V+7AAD+ cells respectively) were quantified and compared between treatments. […] (n=3-6 mice per group). *p<0.05, **p<0.01, ***p<0.001 by one-way ANOVA with post-hoc Tukey's multiple comparison test. Data are representative of 3 independent experiments.\nFIG. 8: Gating strategy to identify the percentage of apoptotic and necrotic immune cell populations. CD3-APC is shown as an example, but the same strategy was used for macrophages (F480-APC), B cells (B220-APC), and Natural Killer (NK) cells (NK1.1-PE).\nMouse hepatic, splenic, and omental cells (1×106), and human PBMCs (1×106) were washed with cold FACS buffer [PBS+2% fetal bovine serum (FBS)+0.1% sodium azide] and incubated with 5 μg/ml anti-mouse CD16/CD32 mAb (clone 2•4G2, Fc-block, eBiosciences) for 20 min on ice before staining with fluorescent monoclonal antibodies (mAbs) diluted in FACS buffer at 4° C. for 30-40 min. Cells were then washed and flow cytometry was performed using FACSCanto II (BD) with FlowJo software (Treestar)."}, "Jα18−/− mice with IAS": {"test_system": "Jα18−/− mice with IAS", "assay": "IAS model in iNKT-deficient Jα18−/− mice: murine sepsis score", "type": "in vivo, mouse", "protocol": "FIG. 4: Th2-polarizing glycolipid OCH reduces disease severity in IAS. C57BL/6 (B6) mice were concomitantly injected i.p. with fecal slurry (FS; 500 μL of 90 mg/mL solution) to induce intra-abdominal sepsis (IAS), and vehicle, OCH, or KRN7000. […] (c) iNKT-deficient Jα18−/− mice were given FS (500 μL of a 90 mg/mL solution) to induce IAS and concomitantly treated with OCH or vehicle. Murine sepsis scores were similar between vehicle and OCH-treated mice (n=3 per group). […] The percentages of T cells remained unchanged with administration of iNKT-specific glycolipid agonists (n=6, n=4, n=6, and n=3 for vehicle, OCH, Vehicle (KRN7000) and KRN7000 groups respectively). *p<0.05, **p<0.01 by Mann-Whitney U test. (d) Bacterial counts in blood and multiple organs were similar between vehicle-, OCH-, and KRN7000-treated mice with sepsis (n=7-9 per group). Data are representative of at least three independent experiments.\nStool from the cecum of euthanized naïve B6 mice was expressed through an enterotomy, homogenized, and suspended in 0.9% normal saline (NS) to produce a fecal slurry at a final concentration of 90 mg/mL, for use in experiments on the same day. […] The mice were monitored and scored by two independent investigators—one of whom was blinded to the treatment—every 2-3 hours for the first 12 hours, and then every 1-2 hours thereafter. […]"}, "invariant TCR": {"test_system": "invariant TCR", "conditions": "OCH compared to KRN7000; cited from earlier work"}, "[4]": {"conditions": "compared to vehicle- and KRN7000-treated mice"}},
  "data": [
    {"compound": "CCCCCCCCCCCCCCCCCCCCCCCCCC(=O)N[C@@H](CO[C@H]1O[C@H](CO)[C@H](O)[C@H](O)[C@H]1O)[C@H](O)[C@H](O)CCCCCCCCCCCCCC", "note": "[KRN7000, reference compound]", "values": [
      {"measurement": "response to auditory and touch stimuli", "setting": "[1]", "value": "non-responsive"},
      {"measurement": "median survival", "setting": "[1]", "value": 22, "unit": "h"},
      {"measurement": "mortality", "setting": "[1]; by 24 hours", "value": 100, "unit": "%"},
      {"measurement": "time to respiratory distress (laboured breathing and reduced respiratory rates)", "setting": "[1]; most mice, post-sepsis", "value": "≤ 15", "unit": "h"},
      {"measurement": "murine sepsis score (MSS) after 24 h", "setting": "[1]", "value": "no statistical differences"},
      {"measurement": "serum levels of IFN-γ between 12 and 24 hours", "setting": "serum IL-4 and IFN-γ; 4 μg i.p.", "value": "elevated"},
      {"measurement": "potency at down-regulating the TCR relative to OCH", "setting": "[2]", "value": "approximately 10 fold"},
      {"measurement": "NK cell apoptosis", "setting": "[3]", "value": "trend toward reduced apoptosis"},
      {"measurement": "frequency of apoptotic macrophages", "setting": "[3]", "value": "reduced the frequency of apoptosis significantly"}
    ]},
    {"compound": "CCCCCCCCCCCCCCCCCCCCCCCC(=O)N[C@@H](COC1OC(CO)C(O)C(O)C1O)[C@H](O)[C@H](O)CCCCC", "note": "(some centres unmarked) [OCH]", "values": [
      {"measurement": "disease severity (MSS) versus vehicle", "setting": "Jα18−/− mice with IAS", "value": "did not observe any differences"},
      {"measurement": "response to auditory and touch stimuli", "setting": "[1]", "value": "more responsive"},
      {"measurement": "survival time", "setting": "[1]; 4 μg i.p.", "value": "> 24", "unit": "h"},
      {"measurement": "median survival", "setting": "[1]", "value": 28, "unit": "h"},
      {"measurement": "respiratory status", "setting": "[1]; observed up to 24 hours", "value": "relatively normal respiratory rates"},
      {"measurement": "course of MSS over time", "setting": "[1]; up to 24 hours", "value": "reached a plateau"},
      {"measurement": "murine sepsis score (MSS) after 24 h", "setting": "[1]", "value": "significantly lower"},
      {"measurement": "binding affinity for the invariant TCR", "setting": "invariant TCR", "value": "lower"},
      {"measurement": "serum IFN-γ at 24 hours", "setting": "serum IL-4 and IFN-γ; 4 μg i.p.", "value": "almost undetectable"},
      {"measurement": "time of peak of serum IFN-γ", "setting": "serum IL-4 and IFN-γ; 4 μg i.p., ELISA", "value": 12, "unit": "h"},
      {"measurement": "time of peak of serum IL-4", "setting": "serum IL-4 and IFN-γ; 4 μg i.p., ELISA", "value": 2, "unit": "h"},
      {"measurement": "serum IL-4 at 12 to 24 hours", "setting": "serum IL-4 and IFN-γ; 4 μg i.p., relative to 2 hour peak", "value": "significantly reduced"},
      {"measurement": "IL-4:IFN-γ ratio based on peak values", "setting": "serum IL-4 and IFN-γ; OCH compared to KRN7000", "value": "higher"},
      {"measurement": "apoptosis of splenic B cells", "setting": "[3]; [4]", "value": "significantly reduced"},
      {"measurement": "apoptosis of splenic T cells", "setting": "[3]; [4]", "value": "significantly reduced"},
      {"measurement": "NK cell apoptosis", "setting": "[3]", "value": "appeared to be reduced"},
      {"measurement": "frequency of apoptotic macrophages", "setting": "[3]", "value": "reduced the frequency of apoptosis significantly"}
    ]}
  ]
}
